Inconclusive results and toxic doses are left out. Rule as the data show it: active = T/C of 150% or more; inactive = T/C below 125%.
System: L1210 leukemia ip in BDF1 mice, survival T/C
Assay: NCI In Vivo Anticancer Drug Screen. Data for tumor model L1210 Leukemia (intraperitoneal) in B6D2F1 (BDF1) mice
Conditions: endpoint: mean survival time, higher = longer survival
Outline: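 Transplantable tumor model; survival measured in treated vs vehicle control mice. Value = treated/control.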

[1] = dose: 200.0 mg/kg/injection, schedule: Q01DX001 (ip), vehicle: Klucel (hydroxypropylcellulose) (HPC)
[2] = dose: 400.0 mg/kg/injection, schedule: Q01DX001 (ip), vehicle: Klucel (hydroxypropylcellulose) (HPC)
[3] = dose: 100.0 mg/kg/injection, schedule: Q04DX003 (ip), vehicle: Klucel (hydroxypropylcellulose) (HPC)
[4] = dose: 200.0 mg/kg/injection, schedule: Q04DX003 (ip), vehicle: Klucel (hydroxypropylcellulose) (HPC)
[5] = dose: 400.0 mg/kg/injection, schedule: Q04DX003 (ip), vehicle: Klucel (hydroxypropylcellulose) (HPC)
[6] = dose: 25.0 mg/kg/injection, schedule: Q01DX009 (ip), vehicle: saline
[7] = dose: 25.0 mg/kg/injection, schedule: Q04DX003 (ip), vehicle: saline
[8] = dose: 50.0 mg/kg/injection, schedule: Q01DX009 (ip), vehicle: saline
[9] = dose: 50.0 mg/kg/injection, schedule: Q04DX003 (ip), vehicle: saline
[10] = dose: 100.0 mg/kg/injection, schedule: Q01DX001 (ip), vehicle: saline
[11] = dose: 100.0 mg/kg/injection, schedule: Q01DX009 (ip), vehicle: saline
[12] = dose: 100.0 mg/kg/injection, schedule: Q04DX003 (ip), vehicle: saline
[13] = dose: 200.0 mg/kg/injection, schedule: Q01DX001 (ip), vehicle: saline
[14] = dose: 400.0 mg/kg/injection, schedule: Q01DX001 (ip), vehicle: saline
[15] = dose: 100.0 mg/kg/injection, schedule: Q01DX001 (ip), vehicle: carboxymethylcellulose (CMC)
[16] = dose: 200.0 mg/kg/injection, schedule: Q01DX001 (ip), vehicle: carboxymethylcellulose (CMC)
[17] = dose: 400.0 mg/kg/injection, schedule: Q01DX001 (ip), vehicle: carboxymethylcellulose (CMC)
[18] = dose: 200.0 mg/kg/injection, schedule: Q01DX009 (ip), vehicle: saline
[19] = dose: 75.0 mg/kg/injection, schedule: Q01DX001 (ip), vehicle: saline
[20] = dose: 150.0 mg/kg/injection, schedule: Q01DX001 (ip), vehicle: saline
[21] = dose: 100.0 mg/kg/injection, schedule: Q04DX002 (ip), vehicle: saline
[22] = dose: 200.0 mg/kg/injection, schedule: Q04DX002 (ip), vehicle: saline
[23] = dose: 400.0 mg/kg/injection, schedule: Q04DX002 (ip), vehicle: saline
[24] = dose: 200.0 mg/kg/injection, schedule: Q04DX003 (ip), vehicle: saline

Measured: T/C

O=S(=O)(Nc1ccc(N(c2c(Cl)c(Cl)c(NS(=O)(=O)c3ccccc3)c(Cl)c2Cl)S(=O)(=O)c2ccccc2)cc1)c1ccccc1
inactive: dose: 100.0 mg/kg/injection, schedule: Q01DX001 (ip), vehicle: Klucel (hydroxypropylcellulose) (HPC) 93 % of control | [1] 96 % of control | [2] 95 % of control

CC(C)(C)C1CSC(c2ccccc2)SC1 (centres undefined)
inactive: dose: 12.5 mg/kg/injection, schedule: Q04DX002 (ip), vehicle: Klucel (hydroxypropylcellulose) (HPC) 98 % of control | dose: 25.0 mg/kg/injection, schedule: Q04DX002 (ip), vehicle: Klucel (hydroxypropylcellulose) (HPC) 92 % of control | dose: 50.0 mg/kg/injection, schedule: Q04DX002 (ip), vehicle: Klucel (hydroxypropylcellulose) (HPC) 98 % of control

COc1ccc(OC)c(NC(=O)Nc2ccc(N(C)C(C)=O)cc2)c1
inactive: [3] 90 % of control | [4] 87 % of control | [5] 88 % of control

CCC(=O)NC1(C(=O)O)CCCc2ccccc21 (centres undefined)
inactive: [3] 110 % of control | [4] 96 % of control

CN(C)CCN=C(Nc1ccccn1)Nc1ccccn1
inactive: dose: 12.5 mg/kg/injection, schedule: Q01DX001 (ip), vehicle: saline 113 % of control | dose: 25.0 mg/kg/injection, schedule: Q01DX001 (ip), vehicle: saline 104 % of control | [6] 110 % of control | [7] 100 % of control | dose: 50.0 mg/kg/injection, schedule: Q01DX001 (ip), vehicle: saline 113 % of control | [8] 100 % of control | [9] 95 % of control | [10] 97 % of control | [11] 97 % of control | [12] 113 % of control

Cc1ccc(Nc2ccc(Nc3ccc(C)cc3)c3c2C(=O)c2c(O)ccc(O)c2C3=O)cc1
inactive: [1] 90 % of control | [2] 97 % of control

NC(=O)C1(O)C(Cl)(Cl)CCCC1(Cl)Cl
inactive: dose: 50.0 mg/kg/injection, schedule: Q01DX009 (ip), vehicle: saline with Tween-80 102 % of control | dose: 100.0 mg/kg/injection, schedule: Q01DX009 (ip), vehicle: saline with Tween-80 91 % of control | dose: 200.0 mg/kg/injection, schedule: Q01DX009 (ip), vehicle: saline with Tween-80 106 % of control

CCOC(=O)CC(=O)OCC
inactive: [10] 93 % of control | [13] 93 % of control | [14] 90 % of control

c1ccc2c(CCc3ccncc3)cccc2c1
inactive: dose: 100.0 mg/kg/injection, schedule: Q01DX009 (ip), vehicle: Klucel (hydroxypropylcellulose) (HPC) 103 % of control | [3] 101 % of control | dose: 200.0 mg/kg/injection, schedule: Q01DX009 (ip), vehicle: Klucel (hydroxypropylcellulose) (HPC) 100 % of control | [4] 103 % of control | dose: 400.0 mg/kg/injection, schedule: Q01DX009 (ip), vehicle: Klucel (hydroxypropylcellulose) (HPC) 97 % of control | [5] 100 % of control

Cc1cc(C)c(C(=O)N/N=C/c2ccc(N(CCCl)CCCl)cc2)c(=O)[nH]1
inactive: dose: 50.0 mg/kg/injection, schedule: Q01DX001 (ip), vehicle: carboxymethylcellulose (CMC) 97 % of control | [15] 100 % of control | [16] 103 % of control | [17] 92 % of control

CC(=O)CC(=O)N1CCN(C(=O)CC(C)=O)CC1
inactive: [11] 100 % of control | [18] 96 % of control | dose: 400.0 mg/kg/injection, schedule: Q01DX009 (ip), vehicle: saline 100 % of control

CCCCCCC[n+]1cccc(C#N)c1
inactive: dose: 37.5 mg/kg/injection, schedule: Q04DX003 (ip), vehicle: saline 96 % of control | [19] 96 % of control | dose: 75.0 mg/kg/injection, schedule: Q04DX003 (ip), vehicle: saline 98 % of control | [20] 100 % of control | dose: 150.0 mg/kg/injection, schedule: Q04DX003 (ip), vehicle: saline 95 % of control

CN(C)CCCNc1nc(-c2cccc(C(Cl)(Cl)Cl)c2)nc(C(Cl)(Cl)Cl)n1
inactive: [19] 95 % of control | [20] 101 % of control | dose: 300.0 mg/kg/injection, schedule: Q01DX001 (ip), vehicle: saline 91 % of control

NC(=O)NC(=O)Nc1ccccc1
inactive: [21] 96 % of control | [22] 96 % of control | [23] 111 % of control

C=CCN1CCC(C(=O)OC)(c2ccccc2)CC1
inactive: [12] 96 % of control | [24] 103 % of control

CC(=O)Nc1ncnc2c(C3OC(COC(C)=O)C(OC(C)=O)C3OC(C)=O)[nH]nc12 (centres undefined)
inactive: [10] 100 % of control | [13] 97 % of control | [14] 100 % of control

CCC(CC)NC(C)CO (centres undefined)
inactive: dose: 75.0 mg/kg/injection, schedule: Q01DX001 (ip), vehicle: acid diluted with saline 105 % of control | dose: 150.0 mg/kg/injection, schedule: Q01DX001 (ip), vehicle: acid diluted with saline 103 % of control | dose: 300.0 mg/kg/injection, schedule: Q01DX001 (ip), vehicle: acid diluted with saline 103 % of control

Clc1ccc([I+]c2ccc(Cl)c(Cl)c2)cc1Cl
inactive: dose: 4.0 mg/kg/injection, schedule: Q01DX015 (ip), vehicle: carboxymethylcellulose (CMC) 98 % of control | dose: 8.0 mg/kg/injection, schedule: Q01DX015 (ip), vehicle: carboxymethylcellulose (CMC) 96 % of control | dose: 16.0 mg/kg/injection, schedule: Q01DX015 (ip), vehicle: carboxymethylcellulose (CMC) 87 % of control | dose: 32.0 mg/kg/injection, schedule: Q01DX015 (ip), vehicle: carboxymethylcellulose (CMC) 96 % of control | [15] 95 % of control | [16] 106 % of control | [17] 111 % of control

COC(=O)CCCCCN1C(=O)c2cccc([N+](=O)[O-])c2C1=O
inactive: dose: 100.0 mg/kg/injection, schedule: Q01DX001 (ip), vehicle: saline with Tween-80 104 % of control | dose: 200.0 mg/kg/injection, schedule: Q01DX001 (ip), vehicle: saline with Tween-80 97 % of control | dose: 400.0 mg/kg/injection, schedule: Q01DX001 (ip), vehicle: saline with Tween-80 100 % of control

C[n+]1ccn(CCCl)c1
inactive: dose: 25.0 mg/kg/injection, schedule: Q01DX Z (ip), vehicle: saline 96 % of control | dose: 50.0 mg/kg/injection, schedule: Q01DX Z (ip), vehicle: saline 93 % of control | dose: 100.0 mg/kg/injection, schedule: Q01DX Z (ip), vehicle: saline 96 % of control

O=C(Nc1c[nH]c(=O)[nH]c1=O)C(F)(F)F
inactive: [8] 100 % of control | [9] 103 % of control | [11] 96 % of control | [12] 104 % of control | [18] 92 % of control | [24] 108 % of control

CCCC(=O)Nc1ccc(C(=O)OCC)cc1
inactive: [21] 93 % of control | [22] 100 % of control | [23] 107 % of control

O=P1(O)Cc2ccccc2-c2ccccc21
inactive: dose: 100.0 mg/kg/injection, schedule: Q01DX001 (ip), vehicle: other 96 % of control | dose: 200.0 mg/kg/injection, schedule: Q01DX001 (ip), vehicle: other 101 % of control | dose: 400.0 mg/kg/injection, schedule: Q01DX001 (ip), vehicle: other 98 % of control

O=C(/C=N/O)/C=N/O (tested in a mixture with another compound)
inactive: dose: 6.25 mg/kg/injection, schedule: Q01DX009 (ip), vehicle: saline 97 % of control | dose: 12.5 mg/kg/injection, schedule: Q01DX009 (ip), vehicle: saline 96 % of control | dose: 12.5 mg/kg/injection, schedule: Q04DX003 (ip), vehicle: saline 96 % of control | [6] 96 % of control | [7] 104 % of control

CC(C)C(NC(=O)CCNC(=O)OCc1ccccc1)C(=O)OCc1ccccc1 (centres undefined)
inactive: dose: 100.0 mg/kg/injection, schedule: Q04DX003 (ip), vehicle: saline with Tween-80 93 % of control | dose: 200.0 mg/kg/injection, schedule: Q04DX003 (ip), vehicle: saline with Tween-80 92 % of control | dose: 400.0 mg/kg/injection, schedule: Q04DX003 (ip), vehicle: saline with Tween-80 95 % of control

Source: PubChem BioAssay AID248 (DTP/NCI, 2004)
